This assay concerns the target BTK (Homo sapiens (Human), UniProt Q06187). Put plainly: In Vitro BTK Kinase Assay: Btk-PolyGAT-LS Assay. The assay is classed as biochemical. As to conditions: active BTK enzyme 0.25 nM, ATP 10 μM, polyGAT 100 nM, 30 minutes. Here is the method:
In Vitro BTK Kinase Assay: Btk-PolyGAT-LS Assay
The purpose of the BTK in vitro assay is to determine compound potency against BTK through the measurement of IC50. […] The BTK kinase reaction was done in a black 96 well plate (costar 3694). For a typical assay, a […] aliquot of a ATP/peptide master mix (final concentration; ATP 10 μM, polyGAT 100 nM) in kinase buffer (10 mM Tris-HCl pH 7.5, 10 mM MgCl2, 200 μM […], 5 mM DTT, 0.01% Triton X-100, and 0.2 mg/ml casein) is added to each well. Next, […] of a 4-fold, 40× compound titration in 100% DMSO solvent is added, followed by adding 15 uL of BTK enzyme mix in 1× kinase buffer (with a final concentration of 0.25 nM). The assay is incubated for 30 minutes before being stopped with […] of a 50 mM EDTA solution. Aliquots (5 uL) of the kinase reaction are transferred to a low volume white 384 well plate (Corning 3674), and […] of a 2× detection buffer (Invitrogen PV3574, with 4 nM Tb-PY20 antibody, Invitrogen PV3552) is added. The plate is covered and incubated for 45 minutes at room temperature. Time resolved fluorescence (TRF) on Molecular Devices M5 (332 nm excitation; 488 nm emission; 518 nm fluorescein emission) is measured.

For 47 molecules, IC50 results are on record in patent US12391697B2, “Condensed bi-heterocycles as inhibiting agents for Bruton's tyrosine kinase” (BIOGEN MA INC., priority 2019, dated 2025).

Where a name gives a salt, the structure may show the parent alone. A value given as a limit tells only on which side of the number the result lay.

One may read the IC50 as the concentration that gives 50% inhibition. Read a high IC50 as weaker potency in that assay.

BTK, sequence (Q06187 whole entry): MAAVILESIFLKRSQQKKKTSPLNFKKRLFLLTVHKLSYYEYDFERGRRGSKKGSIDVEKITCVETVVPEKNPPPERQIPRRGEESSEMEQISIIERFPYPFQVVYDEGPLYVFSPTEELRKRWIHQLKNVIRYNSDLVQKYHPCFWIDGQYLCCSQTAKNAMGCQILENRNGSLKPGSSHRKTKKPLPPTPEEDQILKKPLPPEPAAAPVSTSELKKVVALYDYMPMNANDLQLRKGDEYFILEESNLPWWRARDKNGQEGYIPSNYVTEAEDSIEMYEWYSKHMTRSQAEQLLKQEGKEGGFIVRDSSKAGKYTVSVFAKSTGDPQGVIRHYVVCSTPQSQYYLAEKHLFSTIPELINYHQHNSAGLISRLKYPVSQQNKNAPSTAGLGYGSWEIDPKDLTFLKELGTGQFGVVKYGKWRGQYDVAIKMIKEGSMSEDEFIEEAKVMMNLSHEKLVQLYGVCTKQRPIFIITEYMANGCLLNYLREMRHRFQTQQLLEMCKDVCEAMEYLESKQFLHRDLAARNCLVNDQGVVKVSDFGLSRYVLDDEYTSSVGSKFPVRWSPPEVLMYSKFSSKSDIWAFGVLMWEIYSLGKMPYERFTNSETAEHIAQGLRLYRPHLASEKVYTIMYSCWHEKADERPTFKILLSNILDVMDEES

The molecule `COc1c(CNC(=O)c2nnc(C(C)(C)C)o2)ccc(-c2ncnn3cc(-c4cnn(C)c4)cc23)c1F` [Example 201] had an IC50 of 1 to 10 nM. Consider `Cc1cc(-c2ncnn3cc(N4CCOC(C)(C)C4)cc23)ccc1CNC(=O)c1noc(C(C)(C)C)n1` [Example 78, 5-(tert-butyl)-N-(4-(6-(2,2-dimethylmorpholino)pyrrolo[2,1-f][1,2,4]triazin-4-yl)-2-methylbenzyl)-1,2,4-oxadiazole-3-carboxamide hydrochloride], for which the IC50 was at most 1 nM. Then `Cn1cc(-c2cc3c(-c4ccc(CNC(=O)c5nc(C(C)(C)C)no5)c(CC(F)F)c4F)ncnn3c2)cn1` [Example 66, 3-(tert-butyl)-N-(2-(2,2-difluoroethyl)-3-fluoro-4-(6-(1-methyl-1H-pyrazol-4-yl)pyrrolo[2,1-f][1,2,4]triazin-4-yl)benzyl)-1,2,4-oxadiazole-5-carboxamide hydrochloride], with at most 1 nM; and `CC(C)(C)c1cc(C(=O)NCc2cc(F)c(-c3ncnn4cccc34)cc2Cl)no1` [Example 135], with over 10 nM. In turn, `Cc1cc(-c2ncnn3cc(N4CCOCC4)cc23)ccc1CNC(=O)c1ccn(C(C)(C)C)n1` [Example 175] showed an IC50 of 1 to 10 nM. Then `CC(C)(C)n1cc(C(=O)NCc2ccc(-c3ncnn4cc(N5CCOCC5)cc34)cc2Cl)nn1` [Example 162], with 1 to 10 nM; and `Cc1cc(-c2ncnn3cc(-c4cnn(C)c4)cc23)ccc1CNC(=O)c1nnc(C(C)(C)C(F)F)o1` [Example 3, 5-(1,1-difluoro-2-methylpropan-2-yl)-N-(2-methyl-4-(6-(1-methyl-1H-pyrazol-4-yl)pyrrolo[2,1-f][1,2,4]triazin-4-yl)benzyl)-1,3,4-oxadiazole-2-carboxamide], with at most 1 nM.

For `Cc1cc(-c2ncnn3cc(CC4CCOCC4)cc23)ccc1CNC(=O)c1noc(C(C)(C)C)n1` [Example 94], the IC50 was over 10 nM. Then `Cc1cc(-c2ncnn3cc(N4CCN(C)[C@H](C)C4)cc23)ccc1CNC(=O)c1noc(C(C)(C)C)n1` (single isomer, unassigned) [Example 117], with at most 1 nM. For `Cc1cc(-c2ncnn3cc(C(=O)N4CCOCC4)cc23)ccc1CNC(=O)c1noc(C(C)(C)C)n1` [Example 215] the value was over 10 nM; for `Cc1cc(-c2ncnn3cc(N4CCN(C)CC4)cc23)ccc1CNC(=O)c1nc(C(C)(C)C)no1` [Example 69, 3-(tert-butyl)-N-(2-methyl-4-(6-(4-methylpiperazin-1-yl)pyrrolo[2,1-f][1,2,4]triazin-4-yl)benzyl)-1,2,4-oxadiazole-5-carboxamide], at most 1 nM; for `Cc1cc(-c2ncnn3cc(N4CCO[C@@H](C)C4)cc23)ccc1CNC(=O)c1coc(C(C)(C)C)n1` (single isomer, unassigned) [Example 144], at most 1 nM. As to `Cc1cc(-c2ccnc3ccnn23)ccc1CNC(=O)c1noc(C(C)(C)C)n1` [Example 50], the IC50 is 1 to 10 nM. In turn, `Cc1cc(-c2ncnn3cc(Br)cc23)ccc1CNC(=O)c1noc(C(C)(C)C)n1` [Example 51] had an IC50 of 1 to 10 nM.

With `Cc1cc(-c2ncnn3cc(-c4cnn(C)c4)cc23)ccc1CNC(=O)c1ccn(C(C)(C)C)n1` [Example 168], the IC50 is at most 1 nM. `Cc1cc(-c2ncnn3cc(-c4cnn(C)c4C)cc23)ccc1CNC(=O)c1nnn(C(C)(C)C)n1` [Example 129] displayed an IC50 of at most 1 nM.

For the molecule `Cc1cc(-c2ncnn3cc(N4C[C@@H]5C[C@H]4CN5C)cc23)ccc1CNC(=O)c1noc(C(C)(C)C)n1` [Example 93], the IC50 is over 10 nM. For `CC(C)(C)c1nc(C(=O)NCc2ccc(-c3ncnn4cc(N5CCOCC5)cc34)c(F)c2C(F)F)no1` [Example 221] the value was at most 1 nM; for `Cn1cc(-c2cc3c(-c4ccc(CNC(=O)c5nc(C(C)(C)C)no5)c(C(F)F)c4)ncnn3c2)cn1` [Example 190], at most 1 nM; for `Cc1cc(-c2ncnn3cc(-c4cnn(C)c4C)cc23)ccc1CNC(=O)c1coc(C(C)(C)C)n1` [Example 130], at most 1 nM.

`CC(C)(C)c1nc(C(=O)NCc2ccc(-c3ncnn4cc(N5CCOCC5)cc34)cc2C(F)F)co1` [Example 198] returned an IC50 of at most 1 nM.

As for `CC(C)(C)c1nc(C(=O)NCc2ccc(-c3ncnn4cccc34)c(F)c2C2CC2)no1` [Example 62, 5-(tert-butyl)-N-(2-cyclopropyl-3-fluoro-4-(pyrrolo[2,1-f][1,2,4]triazin-4-yl)benzyl)-1,2,4-oxadiazole-3-carboxamide trifluoroacetate], the IC50 fell in the range of 1 to 10 nM. Then `Cc1cc(-c2ncnn3cc(N4CCN(C)C(=O)C4)cc23)ccc1CNC(=O)c1noc(C(C)(C)C)n1` [Example 177], with at most 1 nM.

Take `Cc1cc(-c2ncnn3cc(-c4cccnc4)cc23)ccc1CNC(=O)c1noc(C(C)(C)C)n1` [Example 169]: the IC50 was at most 1 nM. Regarding `Cc1c(CNC(=O)c2cnn(C(C)(C)C)c2)ccc(-c2ncnn3cc(N4CCOCC4)cc23)c1F` [Example 88], the IC50 is at most 1 nM. `COc1cc(-c2cc3c(-c4ccc(CNC(=O)c5noc(C(C)(C)C)n5)c(C)c4)ncnn3c2)ccn1` [Example 228] showed an IC50 of at most 1 nM.

On to `Cc1c(CNC(=O)c2ccn(C(C)(C)C)n2)ccc(-c2ncnn3cc(N4CCOCC4)cc23)c1F` [Example 89], for which the IC50 fell in the range of 1 to 10 nM. In turn, `Cn1cc(-c2cc3c(-c4ccc(CNC(=O)c5cn(C(C)(C)C)nn5)c(C(F)F)c4)ncnn3c2)cn1` [Example 64, 1-(tert-butyl)-N-(2-(difluoromethyl)-4-(6-(1-methyl-1H-pyrazol-4-yl)pyrrolo[2,1-f][1,2,4]triazin-4-yl)benzyl)-1H-1,2,3-triazole-4-carboxamide hydrochloride] showed an IC50 of at most 1 nM. For `Cc1cc(-c2ncnn3cc(N4CCn5ccnc5C4)cc23)ccc1CNC(=O)c1nc(C(C)(C)C)no1` [Example 121] the value was at most 1 nM.

Regarding `Cc1cc(-c2c(C#N)cnn3cccc23)ccc1CNC(=O)c1noc(C(C)(C)C)n1` [Example 53], the IC50 was over 10 nM. For `Cc1cc(-c2ncnn3cc(C4=CCOCC4)cc23)ccc1CNC(=O)c1nc(C(C)(C)C)no1` [Example 103] the value was at most 1 nM. For the molecule `Cc1cc(-c2ncnn3cccc23)ccc1CNC(=O)c1noc(C(C)(C)C)n1` [Example 151], the IC50 was in the range of 1 to 10 nM. As to `Cc1cc(-c2ncnn3cc(N4CC5CC(C4)N5C)cc23)ccc1CNC(=O)c1noc(C(C)(C)C)n1` [Example 148], the IC50 lay in the range of 1 to 10 nM. For `Cc1cc(-c2ncnn3cccc23)ccc1CNC(=O)c1nnn(C(C)(C)C)n1` [Example 214] the value was 1 to 10 nM; for `Cc1cc(-c2ncnn3cc(N4CCO[C@@H](C)C4)cc23)ccc1CNC(=O)c1noc(C(C)(C)C)n1` (single isomer, unassigned) [Example 29], at most 1 nM; for `Cc1cc(-c2ncnn3cc(N4CC[C@H](F)C4)cc23)ccc1CNC(=O)c1noc(C(C)(C)C)n1` (single isomer, unassigned) [Example 141], at most 1 nM. For `COc1c(CNC(=O)c2noc(C(C)(C)C)n2)ccc(-c2ncnn3cc(N4CCOCC4)cc23)c1F` [Example 223] the value was at most 1 nM.

In turn, `CC(C)(C)n1cc(C(=O)NCc2ccc(-c3ncnn4cc(C5=CCOCC5)cc34)cc2C(F)F)cn1` [Example 208] came in with an IC50 of at most 1 nM. Then `CC(C)(C)c1nc(C(=O)NCc2ccc(-c3ncnn4cc(N5CCOCC5)cc34)cc2CC(F)F)no1` [Example 232], with at most 1 nM.

In turn, `Cc1cc(-c2ncnn3cc(N4CCOCC4)cc23)ccc1CNC(=O)c1nnn(C(C)(C)C)n1` [Example 114] showed an IC50 of at most 1 nM. For `Cc1cc(-c2ncnn3cc(N4CCN(C)C[C@H]4C)cc23)ccc1CNC(=O)c1noc(C(C)(C)C)n1` [Example 70, (R)-5-(tert-butyl)-N-(4-(6-(2,4-dimethylpiperazin-1-yl)pyrrolo[2,1-f][1,2,4]triazin-4-yl)-2-methylbenzyl)-1,2,4-oxadiazole-3-carboxamide trifluoroacetate], the IC50 lay within 1 to 10 nM. Take `Cc1cc(-c2ncnn3cc(C4=CCOCC4)cc23)ccc1CNC(=O)c1coc(C(C)(C)C)n1` [Example 124]: the IC50 was at most 1 nM.

The molecule `CC(C)(C)c1noc(C(=O)NCc2ccc(-c3ncnn4cc(N5CCOCC5)cc34)cc2Cl)n1` [Example 159] came in with an IC50 of at most 1 nM. Turning to `Cc1cc(-c2ncnn3cc(-c4cnn(C)c4)cc23)ccc1CNC(=O)c1nnc(C(C)(C)C)o1` [Example 165], the IC50 is at most 1 nM. Then `Cc1cc(-c2ncnn3cc(C4COC4)cc23)ccc1CNC(=O)c1noc(C(C)(C)C)n1` [Example 71, 5-(tert-butyl)-N-(2-methyl-4-(6-(oxetan-3-yl)pyrrolo[2,1-f][1,2,4]triazin-4-yl)benzyl)-1,2,4-oxadiazole-3-carboxamide trifluoroacetate], with over 10 nM; and `Cc1cc(-c2ncnn3cccc23)ccc1CNC(=O)c1coc(C(C)(F)F)n1` [Example 20, 2-(1,1-difluoroethyl)-N-(2-methyl-4-(pyrrolo[2,1-f][1,2,4]triazin-4-yl)benzyl)oxazole-4-carboxamide trifluoroacetate], with over 10 nM; and `CC(C)(C)c1nnc(C(=O)NCc2ccc(-c3ncnn4cc(N5CCOCC5)cc34)c(F)c2C2CC2)o1` [Example 163], with 1 to 10 nM.
